# Results from patent US20260297542A1, “HERBICIDE RESISTANT PLANTS” (SYNGENTA CROP PROTECTION AG, priority 2023, published 2026).
# Molecular target: T1, His-TEV-AtPP01 ΔcTP V030 (SEQ ID NO: 374) (Arabidopsis thaliana, UniProt P55826, S305L/Y426V)
# T1 construct: with cTPs removed; made in house; host or cells: E. coli BL21 (DE3), His GraviTrap, partially purified
# T1 sequence (P55826 with tags, fused parts or gaps S305L/Y426V): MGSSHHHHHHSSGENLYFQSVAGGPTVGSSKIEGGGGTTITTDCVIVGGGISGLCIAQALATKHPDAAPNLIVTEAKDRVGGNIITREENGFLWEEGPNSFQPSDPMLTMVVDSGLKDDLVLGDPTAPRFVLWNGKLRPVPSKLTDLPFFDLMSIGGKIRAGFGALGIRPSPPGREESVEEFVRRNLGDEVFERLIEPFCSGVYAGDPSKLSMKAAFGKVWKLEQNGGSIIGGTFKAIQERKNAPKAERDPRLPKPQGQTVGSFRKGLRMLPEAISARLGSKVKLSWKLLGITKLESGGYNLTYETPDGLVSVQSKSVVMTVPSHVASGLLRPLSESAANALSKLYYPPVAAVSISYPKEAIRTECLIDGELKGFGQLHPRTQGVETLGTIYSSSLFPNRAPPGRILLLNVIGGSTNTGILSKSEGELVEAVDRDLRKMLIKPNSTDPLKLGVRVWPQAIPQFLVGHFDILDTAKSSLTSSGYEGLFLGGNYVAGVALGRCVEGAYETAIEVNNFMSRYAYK
# Test: activity rate of PPO variant in in vitro assay
# Format: biochemical
# Conditions: role: substrate; 1 uM protoporphyrinogen IX; no inhibitor
# Text: A pET24 plasmid containing a DNA sequence encoding variants of AtPPO1 derived from Arabidopsis thaliana with cTPs removed and both a 6×His tag and TEV protease cleavage tag added at the N-terminus, codon-optimised for expression in E. coli, and under control of a T7 promoter, was synthesised by Twist Bioscience. The following variants were synthesised: WT AtPPO1 (SEQ ID NO: 370), AtPPO1 L479M (SEQ ID NO: 371), AtPPO1 L479N (SEQ ID NO: 372), AtPPO1 S305L Y426V (SEQ ID NO: 374) and AtPPO1 S305L Y426V L479M (SEQ ID NO: 373). This plasmid was expressed in E. coli BL21 (DE3) with 50 μg/mL kanamycin selection. 10 mL of overnight cultures grown at 37° C. were used to inoculate 1 L AIM (AIM-Terrific Broth Base including Trace elements, Formedium) in 2 L shake flasks. Cultures were grown at 37° C., 200 rpm for 3 hours and then overnight at 26° C. Cells were harvested centrifugation. 5-15 g of cell pellet was lysed in and resuspended in ratio of 1:1.5 in lysis buffer (20 mM Tris pH8, 500 mM sodium chloride, 10% glycerol, 1× complete Protease EDTA-free Inhibitor Tablet (Roche), 10 mM imidazole). The resuspension was sonicated at 75% using 10 cycles of 30 seconds, 40 seconds off. After sonication Triton X-100 was added to the lysates at a final concentration of 0.5%. The lysates were centrifuged at 20,000 rpm for 25 min at 4° C. Cleared lysates were loaded on His GraviTrap (Cytiva) columns, washed with 20 mL of lysis buffer and eluted in elution buffer (20 mM Tris pH8, 500 mM sodium chloride, 10% glycerol, 200 mM imidazole, 0.03% (v/v) Triton X-100). The eluate was desalted on a PD10 column and 2.5-3.2 mL was collected. Protein concentration was measured and calculated using the absorbance at 280 nm. Extracts were diluted 1 in 4 and 10 uL was analysed by SDS PAGE.
# Partially purified Protoporphyrinogen Oxidase enzymes were assayed for activity using fluorescence adapted from the method of Shepherd & Dailey (Anal Biochem. 2005 344(1) 115-121). The assay was performed in black 384 well plates with a clear bottom and the total volume of the reaction mixture was 91 ul. The final assay mixture contained 100 mM K2HPO4 pH7.2, 1 mM Na2EDTA, 5 mM DTT, 20% glycerol (v/v), 0.05% Tween 20 (v/v), 1.1% DMSO (v/v), 1 uM protoporphyrinogen IX and 1.5 nM enzyme. Compounds were dissolved in DMSO at 1 mM and a 4-fold serial dilution carried out to give 8 rates. 1 ul was added to the assay mixture. This gave final compound concentrations of 11, 2.7, 0.69, 0.17, 0.04, 0.01, 0.002, 0.0007 uM. Enzyme and inhibitor were preincubated for 5 minutes prior to starting the reaction with the addition of the substrate. […] IC50s were calculated using GraphPad Prism 7.05 nonlinear regression (Table 6). Each compound was tested in duplicate.
compound,measurement,value
C=Cc1c2[nH]c(c1C)Cc1[nH]c(c(CCC(=O)O)c1C)Cc1[nH]c(c(C)c1CCC(=O)O)Cc1[nH]c(c(C)c1C=C)C2 [protoporphyrinogen IX],Rate,5.3 rfu second^−1 pmole^−1
